Active and inactive are the calls of the source. No cut-off for these calls is given here.
Experiments:
HFL1 = assay: Antiproliferative activity against human fibroblast HFL1 cells; type: functional; details: read-out: ED50 (the source's name)
T-24 [1] = assay: Antiproliferative activity against human bladder carcinoma T24 cells; type: functional; details: read-out: ED50 (the source's name)
T-24 [2] = assay: Ability to prime Heparan sulfate synthesis in T24 cells at 0.1 mM; type: functional, Homo sapiens
[3] = Dissociation constant, pKa of the compound; type: physicochemical
BALB/3T3 = assay: Antiproliferative activity against mouse fibroblast 3T3 A31 cells; type: functional; details: read-out: ED50 (the source's name)
SV3T3 = assay: Antiproliferative activity against virus transformed mouse fibroblast 3T3 SV40 cells; type: functional; details: read-out: ED50 (the source's name)
T-24 [4] = assay: Induction of apoptosis in T24 cells using TUNEL assay; type: functional, cell-based; details: Homo sapiens

pKa [3] | Compound | EC50 (HFL1) | EC50 (T-24 [1]) | Activity (T-24 [2]) | EC50 (BALB/3T3) | EC50 (SV3T3) | Activity (T-24 [4])
 | Oc1ccc2c(O)cccc2c1 | 70 µM | 20 µM |  |  |  | 
 | Oc1ccc2ccccc2c1O | 25 µM | 13 µM |  |  |  | 
9.16 | Oc1cccc2c(O[C@@H]3OC[C@@H](O)[C@H](O)[C@H]3O)cccc12 | 500 µM | 470 µM | 29% | > 500 µM | > 500 µM | 
 | Oc1cc(O)c2ccccc2c1 | 100 µM | 70 µM |  |  |  | 
9.35 | Oc1ccc2cccc(O[C@@H]3OC[C@@H](O)[C@H](O)[C@H]3O)c2c1 | 370 µM | 370 µM | 15% | 260 µM | 550 µM | 
 | Oc1ccc(O)c2ccccc12 | 1 µM | 0.7 µM |  |  |  | 
9.29 | Oc1cccc2ccc(O[C@@H]3OC[C@@H](O)[C@H](O)[C@H]3O)cc12 | 330 µM | 420 µM | 27% | 160 µM | 510 µM | 
9.17 | Oc1cccc2cc(O[C@@H]3OC[C@@H](O)[C@H](O)[C@H]3O)ccc12 | 500 µM | 600 µM | 12% | > 500 µM | 430 µM | 
 | Oc1ccc2ccc(O)cc2c1 | 70 µM | 30 µM |  |  |  | 
 | Oc1cccc2c(O)cccc12 | 20 µM | < 10 µM |  |  |  | 
8.76 | Oc1cc2ccccc2cc1O[C@@H]1OC[C@@H](O)[C@H](O)[C@H]1O | 190 µM | 400 µM | 28% | 25 µM | 180 µM | 
9.4 | Oc1ccc(O[C@@H]2OC[C@@H](O)[C@H](O)[C@H]2O)c2ccccc12 | 6 µM | 1 µM | 12% | 165 µM | 105 µM | 
 | Oc1cccc2cccc(O)c12 | 20 µM | 10 µM |  |  |  | 
 | O[C@@H]1[C@@H](O)[C@H](Oc2ccc3ccccc3c2)OC[C@H]1O |  |  |  |  |  | inactive
 | Oc1cc2ccccc2cc1O | 40 µM | 30 µM |  |  |  | 
8.66 | Oc1cc(O[C@@H]2OC[C@@H](O)[C@H](O)[C@H]2O)cc2ccccc12 | 320 µM | 25 µM | 20% | 410 µM | 575 µM | 
8.72 | Oc1c(O[C@@H]2OC[C@@H](O)[C@H](O)[C@H]2O)ccc2ccccc12 | 40 µM | 160 µM | 22% | 120 µM | 120 µM | 
9.63 | Oc1ccc2cc(O[C@@H]3OC[C@@H](O)[C@H](O)[C@H]3O)ccc2c1 | 500 µM | 100 µM | 30% | 440 µM | 320 µM | Active
9.41 | Oc1ccc2ccc(O[C@@H]3OC[C@@H](O)[C@H](O)[C@H]3O)cc2c1 | 500 µM | 500 µM | 37% | 300 µM | 460 µM | 
9.34 | Oc1ccc2c(O[C@@H]3OC[C@@H](O)[C@H](O)[C@H]3O)cccc2c1 | 370 µM | 125 µM | 13% | 210 µM | > 500 µM | 
 | Oc1ccc2cccc(O)c2c1 | < 25 µM | < 10 µM |  |  |  | 
10.1 | Oc1cccc2cccc(O[C@@H]3OC[C@@H](O)[C@H](O)[C@H]3O)c12 | 180 µM | 220 µM | 27% | 185 µM | 340 µM | 
 | Oc1ccc2cc(O)ccc2c1 | < 25 µM | < 10 µM |  |  |  | 
8.63 | Oc1ccc2ccccc2c1O[C@@H]1OC[C@@H](O)[C@H](O)[C@H]1O | 80 µM | 150 µM | 2% | 10 µM | 65 µM | 
9.22 | Oc1cc(O[C@@H]2OC[C@@H](O)[C@H](O)[C@H]2O)c2ccccc2c1 | 240 µM | 100 µM | 14% | 130 µM | 275 µM | 
